According to patent publication US20070173488A1, “Pyrazolothiazole Protein Kinase Modulators” (SGX Pharmaceuticals, Inc., priority 2005, published 2007):

The molecules below were run against T1, T315I Abl (Mus musculus, UniProt P00520, T315I) (assay: cAbl Luminescence-based Enzyme Assay (Kinase-Glo)).
T1 construct: The c-Abl T315I KD (kinase domain) was purified as follows; made in house; host or cells: E. coli BL21(DE3) pSA0145 (lambda phosphatase co-expression) or BL21(DE3)Codon+RIL
T1 sequence (P00520 242-493 T315I limits assumed): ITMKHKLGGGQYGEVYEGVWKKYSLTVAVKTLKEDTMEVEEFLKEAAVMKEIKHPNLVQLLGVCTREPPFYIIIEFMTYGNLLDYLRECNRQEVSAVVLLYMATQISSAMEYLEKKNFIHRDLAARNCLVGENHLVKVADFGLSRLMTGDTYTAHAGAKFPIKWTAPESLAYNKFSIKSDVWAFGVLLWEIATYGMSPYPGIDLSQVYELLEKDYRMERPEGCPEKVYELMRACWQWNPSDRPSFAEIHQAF
Format: biochemical
Source text: Homogeneous luminescence-based inhibitor screening assays were developed for c-Abl, MET, AurA, and PDK1 kinases (among others). Each of these assays made use of an ATP depletion assay (Kinase-Glo™, Promega Corporation, Madison, Wis.) to quantitate kinase activity. The Kinase-Glo™ format uses a thermostable luciferase to generate luminescent signal from ATP remaining in solution following the kinase reaction. The luminescent signal is inversely correlated with the amount of kinase activity.
Dose response was analyzed using the equation: y=min+{(max−min)/(1 +10^[compound]-logIC50)}, where y is the observed initial slope, max=the slope in the absence of inhibitor, min=the slope at infinite inhibitor, and the IC50 is the [compound] that corresponds to ½ the total observed amplitude (Amplitude=max−min).
An open-reading frame for c-Abl was amplified from a Mus musculus (mouse) cDNA library prepared from freshly harvested mouse liver using a commercially available kit (Invitrogen) by PCR using the following primers: […]
The c-Abl T315I KD (kinase domain) was purified as follows. Cells were collected by centrifugation, lysed in diluted cracking buffer (50 mM Tris HCl, pH 7.5, 500 mM KCl, 0.1% Tween 20, 20 mM Imidazole, with sonication, and centrifuged to remove cell debris. The soluble fraction was purified over an IMAC column charged with nickel (Pharmacia, Uppsala, Sweden), and eluted under native conditions with a gradient of 20 mM to 500 mM imidazole in 50 mM Tris, pH7.8, 500 mM NaCl, 10 mM methionine, 10% glycerol. The protein was then further purified by gel filtration using a Superdex 75 preparative grade column equilibrated in GF5 buffer (10 mM HEPES, pH7.5, 10 mM methionine, 500 mM NaCl, 5 mM DTT, and 10% glycerol). Fractions containing the purified c-Abl T315I KD kinase domain were pooled. The protein obtained was 98% pure as judged by electrophoresis on SDS polyacrylamide gels. […] The protein was then dephosphorylated with Shrimp Alkaline Phosphatase (MBI Fermentas, Burlington, Canada) under the following conditions: 100U Shrimp Alkaline Phosphatase/mg of c-Abl T315I KD, 100 mM MgCl2, and 250 mM additional NaCl. The reaction was run overnight at 23° C. The protein was determined to be unphosphorylated by Mass spectroscopic analysis. Any precipitate was spun out and the soluble fraction was separated from reactants by gel filtration using a Superdex 75 preparative grade column equilibrated in GF4 buffer (10 mM HEPES, pH7.5, 10 mM methionine, 150 mM NaCl, 5 mM DTT, and 10% glycerol).
cAbl Luminescence-based Enzyme Assay
Materials: Abl substrate peptide=EAIYAAPFAKKK-OH (Biopeptide, San Diego, Calif.), ATP (Sigma Cat#A-3377, FW=551), HEPES buffer, pH 7.5, Bovine serum albumin (BSA) (Roche 92423420), MgCl2, Staurosporine (Streptomyces sp. Sigma Cat#85660-1MG), white Costar 384-well flat -bottom plate (VWR Cat#29444-088), Abl kinase (see below), Kinase-Glo™ (Promega Cat#V6712).
Stock Solutions: 10 mM Abl substrate peptide (13.4 mg/ml in miliQH2O) stored at −20° C.; 100 mM HEPES buffer, pH 7.5 (5 ml 1M stock+45ml miliQH2O); 10 mM ATP (5.51 mg/ml in dH2O) stored at −20° C. (diluted 50 μl into total of 10 ml miliQH2O daily =50 μM ATP working stock); 1% BSA (1 g BSA in 100 ml 0.1 M HEPES, pH 7.5, stored at −20° C.), 100 μM MgCl2; 200 μM Staurosporine, 2× Kinase-Glo™ reagent (made fresh or stored at −20° C.).
Standard Assay Setup for 384-well format (20 μl kinase reaction, 40 μl detection reaction): 10 mM MgCl2; 100 μM Abl substrate peptide; 0.1% BSA; 1 μl test compound (in DMSO); 0.4 μg/ml Abl kinase domain; 10 μM ATP; 100 mM HEPES buffer. Positive controls contained DMSO with no test compound. Negative controls contained 10 μM staurosporine.
The kinase reactions were initiated at time t=0 by the addition of ATP. Kinase reactions were incubated at 21° C. for 30 min, then 20 μl of Kinase-Glo™ reagent were added to each well to quench the kinase reaction and initiate the luminescence reaction. […]

IC50 [nM] | SMILES
< 100 | O=C(Nc1nc2[nH]nc(-n3cncc3-c3c(Cl)cccc3Cl)c2s1)C1CC1 [Cyclopropanecarboxylic acid {3-[5-(2,6-dichloro-phenyl)-imidazol-1-yl]-1H-pyrazolo[3,4-d]thiazol-5-yl}-amide]
< 100 | O=C(Nc1nc2[nH]nc(-n3cncc3-c3cccc(F)c3F)c2s1)C1CC1 [Cyclopropanecarboxylic acid {3-[5-(2,3-difluoro-phenyl)-imidazol-1-yl]-1H-pyrazolo[3,4-d]thiazol-5-yl}-amide]
< 100 | NC(=O)COc1ccc(-c2cncn2-c2n[nH]c3nc(NC(=O)C4CC4)sc23)c(Cl)c1 [Cyclopropanecarboxylic acid {3-[5-(4-carbamoylmethoxy-2-chloro-phenyl)-imidazol-1-yl]-1H-pyrazolo[3,4-d]thiazol-5-yl}-amide]

Continued, molecule first:

SMILES | IC50 [nM]
O=C(Nc1nc2[nH]nc(-n3cncc3-c3ccccn3)c2s1)C1CC1 [Cyclopropanecarboxylic acid [3-(5-pyridin-2-yl-imidazol-1-yl)-1H-pyrazolo[3,4-d]thiazol-5-yl]-amide] | < 100
O=C(Nc1nc2[nH]nc(-n3cncc3-c3ccccc3)c2s1)C1CC1 [Cyclopropanecarboxylic acid [3-(5-phenyl-imidazol-1-yl)-1H-pyrazolo[3,4-d]thiazol-5-yl]-amide] | 100 to 1000
O=C(Nc1nc2[nH]nc(-n3cncc3-c3ccc4ccccc4c3)c2s1)C1CC1 [Cyclopropanecarboxylic acid [3-(5-naphthalen-2-yl-imidazol-1-yl)-1H-pyrazolo[3,4-d]thiazol-5-yl]-amide] | 1000 to 10000
O=C(Nc1nc2[nH]nc(-n3cncc3-c3ccccc3Cl)c2s1)C1CC1 [Cyclopropanecarboxylic acid {3-[5-(2-chloro-phenyl)-imidazol-1-yl]-1H-pyrazolo[3,4-d]thiazol-5-yl}-amide] | < 100
O=C(Nc1nc2[nH]nc(-n3cncc3-c3c(Cl)ccc(Cl)c3Cl)c2s1)C1CC1 [Cyclopropanecarboxylic acid {3-[5-(2,3,6-trichloro-phenyl)-imidazol-1-yl]-1H-pyrazolo[3,4-d]thiazol-5-yl}-amide] | < 100
